Values quoted from earlier work as cited in patent US20090062907A1, “Self-expanding valve for the venous system” (priority 2007, published 2009).

For `C[C@H](CCC(=O)O)[C@H]1CC[C@H]2[C@@H]3CC[C@@H]4C[C@H](O)CC[C@]4(C)[C@H]3C[C@H](O)[C@]12C` [Deoxycholic acid], the solubility in alcohol (alcohol) is listed as “soluble” and the solubility in water (water) is listed as “sparingly soluble”.
